Results published in ChEMBL document CHEMBL1201862, “PubChem BioAssay data set” (2004).
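Five compound concentrations were applied to cells in 96-well plates for 48 hours; endpoints were derived by simple linear interpolation of the resulting dose-response curve. Abbreviation: GI50, concentration required for 50% inhibition of growth.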 The source made the active and inactive calls. No stated cut-off is given here; in the data, active = GI50 up to about 1.1 µM and inactive = higher.

Key:
Assay in all cases: NCI tumour cell line growth inhibition, 48 h
UO-31 = system: UO-31
KM12 = system: KM12
Hs-578T = system: Hs-578T
MOLT-4 = system: MOLT-4
HOP-92 = system: HOP-92
786-0 = system: 786-0
OVCAR-5 = system: OVCAR-5
COLO 205 = system: COLO 205
NCI/ADR-RES = system: NCI/ADR-RES
U-251 = system: U-251
MDA-MB-231 = system: MDA-MB-231
IGROV-1 = system: IGROV-1
A549 = system: A549
OVCAR-4 = system: OVCAR-4
UACC-62 = system: UACC-62
NCI-H226 = system: NCI-H226
NCI-H522 = system: NCI-H522
TK-10 = system: TK-10
Malme-3M = system: Malme-3M
LOX IMVI = system: LOX IMVI

Row | SMILES | GI50 (UO-31) | GI50 (KM12) | GI50 (Hs-578T) | GI50 (MOLT-4) | GI50 (HOP-92) | GI50 (786-0) | GI50 (OVCAR-5) | GI50 (COLO 205) | GI50 (NCI/ADR-RES) | GI50 (U-251) | GI50 (MDA-MB-231) | GI50 (IGROV-1) | GI50 (A549) | GI50 (OVCAR-4) | GI50 (UACC-62) | GI50 (NCI-H226) | GI50 (NCI-H522) | GI50 (TK-10) | GI50 (Malme-3M) | GI50 (LOX IMVI)
1 | COc1cc(C2c3c(ccc4ccccc34)C(=O)C3CCC(=O)N32)cc(OC)c1OC (stereo not given) | > 50 µM (inactive) | > 50 µM (inactive) | > 50 µM (inactive) | > 50 µM (inactive) | > 50 µM (inactive) | > 50 µM (inactive) | > 50 µM (inactive) | > 50 µM (inactive) | > 50 µM (inactive) | > 50 µM (inactive) | > 50 µM (inactive) | > 50 µM (inactive) | > 50 µM (inactive) | > 50 µM (inactive) | > 50 µM (inactive) | > 50 µM (inactive) | 25.5 µM (inactive) | – | – | –
2 | COc1cc2c(cc1O)CCN[C@@]21CS[C@H]2c3c(OC(C)=O)c(C)c4c(c3C(COC1=O)N1C2C2NC(Cc3cc(C)c(OC)c(O)c32)[C@@H]1O)OCO4 (stereo not given in full) | < 0.01 µM (active) | < 0.01 µM (active) | < 0.01 µM (active) | – | < 0.01 µM (active) | < 0.01 µM (active) | < 0.01 µM (active) | < 0.01 µM (active) | < 0.01 µM (active) | < 0.01 µM (active) | < 0.01 µM (active) | < 0.01 µM (active) | < 0.01 µM (active) | < 0.01 µM (active) | – | – | < 0.01 µM (active) | < 0.01 µM (active) | – | –
3 | CCOC(=O)c1ccc(-c2onc(C)c2Br)[nH]1 | 32.7 µM (inactive) | 74 µM (inactive) | 70.5 µM (inactive) | > 100 µM (inactive) | 23 µM (inactive) | 43.4 µM (inactive) | > 100 µM (inactive) | 50.2 µM (inactive) | 29.7 µM (inactive) | 36.4 µM (inactive) | 41.7 µM (inactive) | 22.7 µM (inactive) | 33 µM (inactive) | 43.2 µM (inactive) | 56 µM (inactive) | – | 51.9 µM (inactive) | 56.9 µM (inactive) | 79.6 µM (inactive) | –
4 | COC(=O)CCN1CCN(CCO)CC1C (stereo not given) | > 10 µM (inactive) | > 10 µM (inactive) | > 10 µM (inactive) | > 10 µM (inactive) | – | > 10 µM (inactive) | – | > 10 µM (inactive) | > 10 µM (inactive) | > 10 µM (inactive) | > 10 µM (inactive) | > 10 µM (inactive) | > 10 µM (inactive) | > 10 µM (inactive) | > 10 µM (inactive) | > 10 µM (inactive) | > 10 µM (inactive) | > 10 µM (inactive) | > 10 µM (inactive) | > 10 µM (inactive)
5 | COc1ccc(C(=O)CC(c2ccccc2)[C@H]2C(c3ccc(OC)cc3)=Nc3c(nc(SC)n(C)c3=O)NC2c2ccccc2)cc1 (stereo not given in full) | – | > 100 µM (inactive) | > 100 µM (inactive) | > 100 µM (inactive) | > 100 µM (inactive) | > 100 µM (inactive) | > 100 µM (inactive) | > 100 µM (inactive) | > 100 µM (inactive) | > 100 µM (inactive) | > 100 µM (inactive) | > 100 µM (inactive) | > 100 µM (inactive) | – | > 100 µM (inactive) | > 100 µM (inactive) | > 100 µM (inactive) | > 100 µM (inactive) | – | > 100 µM (inactive)
6 | O=C(O)CCC(c1ccccc1)(c1ccccc1)c1ccccc1 | 38.9 µM (inactive) | 51.1 µM (inactive) | 29.9 µM (inactive) | 33.9 µM (inactive) | 13.8 µM (inactive) | 62.2 µM (inactive) | > 100 µM (inactive) | 24.7 µM (inactive) | 36.5 µM (inactive) | 39 µM (inactive) | 43.6 µM (inactive) | – | 28.9 µM (inactive) | 34.5 µM (inactive) | 27.4 µM (inactive) | 88.5 µM (inactive) | – | 52.5 µM (inactive) | > 100 µM (inactive) | 45.1 µM (inactive)
7 | Cc1[nH]n(-c2nc(O)c(-c3ccccc3)c(=O)[nH]2)c(=O)c1CCO | > 100 µM (inactive) | > 100 µM (inactive) | > 100 µM (inactive) | > 100 µM (inactive) | > 100 µM (inactive) | > 100 µM (inactive) | > 100 µM (inactive) | > 100 µM (inactive) | > 100 µM (inactive) | > 100 µM (inactive) | > 100 µM (inactive) | > 100 µM (inactive) | > 100 µM (inactive) | > 100 µM (inactive) | > 100 µM (inactive) | > 100 µM (inactive) | > 100 µM (inactive) | > 100 µM (inactive) | > 100 µM (inactive) | –
8 | CC(C(=O)NCNC(=O)c1ccccc1)C(=O)Nc1ccccc1 (stereo not given) | > 100 µM (inactive) | > 100 µM (inactive) | > 100 µM (inactive) | > 10 µM (inactive) | > 100 µM (inactive) | > 100 µM (inactive) | > 100 µM (inactive) | > 100 µM (inactive) | > 100 µM (inactive) | > 100 µM (inactive) | > 100 µM (inactive) | > 100 µM (inactive) | > 100 µM (inactive) | – | > 100 µM (inactive) | > 100 µM (inactive) | > 100 µM (inactive) | > 100 µM (inactive) | > 100 µM (inactive) | –
